# Experimental data from patent US12559529B2, “NPY2 receptor agonists” (Boehringer Ingelheim International GmbH, priority 2019, dated 2026).
# *1 amine or outer side, *2 acyl side, *3 side chain or, on linkers, in order; H or OH if unused. Where a SMILES comes first, the peptide text is derived from it. Side-chain parts run from the residue outwards. The star is where a group is joined. C18 diacid = O=C(O)CCCCCCCCCCCCCCCCC(=O)*; γGlu = O=C(O)[C@H](CCC(=O)[*:2])N[*:1]; Isovaleryl = CC(C)CC(=O)*; AEEA = NCCOCCOCC(=O)O
# Biological target: T1, Human Neuropeptide Y2 Receptor (Homo sapiens, UniProt P49146)
# T1 construct: purchased CHEMICON HTS066M
# T1 sequence (P49146 1-381): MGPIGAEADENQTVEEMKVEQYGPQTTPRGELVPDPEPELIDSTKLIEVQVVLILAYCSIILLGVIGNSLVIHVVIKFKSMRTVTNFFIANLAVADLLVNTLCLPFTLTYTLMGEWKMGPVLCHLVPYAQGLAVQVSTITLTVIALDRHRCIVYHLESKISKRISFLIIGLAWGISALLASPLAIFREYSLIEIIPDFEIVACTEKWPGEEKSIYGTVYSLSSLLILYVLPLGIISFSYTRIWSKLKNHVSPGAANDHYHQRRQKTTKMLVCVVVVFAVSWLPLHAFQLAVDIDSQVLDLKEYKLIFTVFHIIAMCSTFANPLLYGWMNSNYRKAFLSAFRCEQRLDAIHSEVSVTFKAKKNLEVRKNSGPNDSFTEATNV
# Experiment: Radioligand binding competition assay (RLB)
# Settings: Table 3; human 125I-PYY (1-36) 0.02 nM, Y2 receptor membranes; read-out: Ki
# How it was run: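 Membranes from cells expressing human Y2 receptor (0.5 μg protein/well) were incubated with radioligand and serially diluted peptides in 50 mM HEPES, 5 mM MgCl2, 1 mM CaCl2, 0.2% ovalbumin, pH 7.4, for 2 h at room temperature with shaking. Bound radioactivity was collected by filtration and counted; IC50 from sigmoidal nonlinear regression.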
row,Ki [nM],SMILES
1,5.74,"CC(C)CC(=O)N[C@@H](C)C(=O)N1CCC[C@H]1C(=O)N[C@@H](CCC(=O)O)C(=O)N[C@@H](CCCCNC(=O)COCCOCCNC(=O)COCCOCCNC(=O)CC[C@H](NC(=O)CCCCCCCCCCCCCCCCC(=O)O)C(=O)O)C(=O)N1CCC[C@H]1C(=O)N[C@@H](CCC(=O)O)C(=O)N[C@@H](CCC(=O)O)C(=O)N[C@@H](CC(=O)O)C(=O)N[C@@H](CO)C(=O)N[C@@H](CO)C(=O)N[C@@H](C)C(=O)N[C@@H](CCC(=O)O)C(=O)N[C@@H](CCC(=O)O)C(=O)N[C@@H](CC(C)C)C(=O)N[C@@H](CCC(N)=O)C(=O)N[C@@H](CCCNC(=N)N)C(=O)N[C@@H](Cc1ccc(O)cc1)C(=O)N[C@@H](Cc1ccc(O)cc1)C(=O)N[C@H](C(=O)N[C@@H](CO)C(=O)N[C@@H](CC(C)C)C(=O)N[C@@H](CCCNC(=N)N)C(=O)N[C@@H](Cc1c[nH]cn1)C(=O)N[C@@H](Cc1ccc(O)cc1)C(=O)N[C@@H](Cc1ccc(O)cc1)C(=O)N[C@@H](CC(N)=O)C(=O)N[C@@H](Cc1c[nH]c2ccccc12)C(=O)N[C@@H](CC(C)C)C(=O)N[C@H](C(=O)N[C@@H](CCCNC(=N)N)C(=O)N[C@@H](CCC(N)=O)C(=O)N[C@@H](CCCNC(=N)N)C(=O)N[C@@H](Cc1ccc(O)cc1)C(N)=O)[C@@H](C)O)C(C)C [Compound 69, N{alpha-4}-(3-methylbutanoyl)-N{epsilon-7}-[2-(2-{2-[2-(2-{2-[(4S)-4-carboxy-4-(17-carboxyheptadecanamido)butanamido]ethoxy}ethoxy)acetamido]ethoxy}ethoxy)acetamido]-[4A,7K,9E,12S,14A,18Q,22V,28Y,30W,31L]hPYY (4-36)]"
2,4.86,"CC(C)CC(=O)N[C@@H](C)C(=O)N1CCC[C@H]1C(=O)N[C@@H](CCC(=O)O)C(=O)N[C@@H](CCCCNC(=O)COCCOCCNC(=O)COCCOCCNC(=O)CC[C@H](NC(=O)CCCCCCCCCCCCCCCCC(=O)O)C(=O)O)C(=O)N1CCC[C@H]1C(=O)N[C@@H](CCC(=O)O)C(=O)N[C@@H](CCC(=O)O)C(=O)N[C@@H](C)C(=O)N[C@@H](C)C(=O)N[C@@H](CO)C(=O)N1CCC[C@H]1C(=O)N[C@@H](CCC(=O)O)C(=O)N[C@@H](CCC(=O)O)C(=O)N[C@@H](CC(C)C)C(=O)N[C@@H](CCC(N)=O)C(=O)N[C@@H](CCCNC(=N)N)C(=O)N[C@@H](Cc1ccc(O)cc1)C(=O)N[C@@H](CCC(=O)O)C(=O)N[C@H](C(=O)N[C@@H](CO)C(=O)N[C@@H](CC(C)C)C(=O)N[C@@H](CCCNC(=N)N)C(=O)N[C@@H](Cc1c[nH]cn1)C(=O)N[C@@H](Cc1ccc(O)cc1)C(=O)N[C@@H](Cc1ccc(O)cc1)C(=O)N[C@@H](CC(N)=O)C(=O)N[C@@H](Cc1c[nH]c2ccccc12)C(=O)N[C@@H](CC(C)C)C(=O)N[C@H](C(=O)N[C@@H](CCCNC(=N)N)C(=O)N[C@@H](CCC(N)=O)C(=O)N[C@@H](CCCNC(=N)N)C(=O)N[C@@H](Cc1ccc(O)cc1)C(N)=O)[C@@H](C)O)C(C)C [Compound 70, N{alpha-4}-(3-methylbutanoyl)-N{epsilon-7}-[2-(2-{2-[2-(2-{2-[(4S)-4-carboxy-4-(17-carboxyheptadecanamido)butanamido]ethoxy}ethoxy)acetamido]ethoxy}ethoxy)acetamido]-[4A,7K,9E,11A,18Q,21E,22V,28Y,30W,31L]hPYY (4-36)] (Isovaleryl-APEK([AEEA-AEEA-γGlu-C18 diacid])PEEAASPEELQRYEVSLRHYYNWLTRQRY-NH2)"
3,5.22,"CC(C)CC(=O)N[C@@H](C)C(=O)N1CCC[C@H]1C(=O)N[C@@H](CCC(=O)O)C(=O)N[C@@H](CCCCNC(=O)COCCOCCNC(=O)COCCOCCNC(=O)CC[C@H](NC(=O)CCCCCCCCCCCCCCCCC(=O)O)C(=O)O)C(=O)N1CCC[C@H]1C(=O)N[C@@H](CCC(=O)O)C(=O)N[C@@H](CCC(=O)O)C(=O)N[C@@H](CCC(=O)O)C(=O)N[C@@H](C)C(=O)N[C@@H](CO)C(=O)N1CCC[C@H]1C(=O)N[C@@H](CO)C(=O)N[C@@H](CCC(=O)O)C(=O)N[C@@H](CC(C)C)C(=O)N[C@@H](CCC(N)=O)C(=O)N[C@@H](CCCNC(=N)N)C(=O)N[C@@H](Cc1ccc(O)cc1)C(=O)N[C@@H](Cc1ccc(O)cc1)C(=O)N[C@H](C(=O)N[C@@H](CO)C(=O)N[C@@H](CC(C)C)C(=O)N[C@@H](CCCNC(=N)N)C(=O)N[C@@H](Cc1c[nH]cn1)C(=O)N[C@@H](Cc1ccc(O)cc1)C(=O)N[C@@H](Cc1ccc(O)cc1)C(=O)N[C@@H](CC(N)=O)C(=O)N[C@@H](Cc1c[nH]c2ccccc12)C(=O)N[C@@H](CC(C)C)C(=O)N[C@H](C(=O)N[C@@H](CCCNC(=N)N)C(=O)N[C@@H](CCC(N)=O)C(=O)N[C@@H](CCCNC(=N)N)C(=O)N[C@@H](Cc1ccc(O)cc1)C(N)=O)[C@@H](C)O)C(C)C [Compound 71, N{alpha-4}-(3-methylbutanoyl)-N{epsilon-7}-[2-(2-{2-[2-(2-{2-[(4S)-4-carboxy-4-(17-carboxyheptadecanamido)butanamido]ethoxy}ethoxy)acetamido]ethoxy}ethoxy)acetamido]-[4A,7K,9E,11E,15S,18Q,22V,28Y,30W,31L]hPYY (4-36)] (Isovaleryl-APEK([AEEA-AEEA-γGlu-C18 diacid])PEEEASPSELQRYYVSLRHYYNWLTRQRY-NH2)"
4,6.17,"CC(C)CC(=O)N[C@@H](C)C(=O)N1CCC[C@H]1C(=O)N[C@@H](CCC(=O)O)C(=O)N[C@@H](CCCCNC(=O)COCCOCCNC(=O)COCCOCCNC(=O)CC[C@H](NC(=O)CCCCCCCCCCCCCCCCC(=O)O)C(=O)O)C(=O)N1CCC[C@H]1C(=O)N[C@@H](CCC(=O)O)C(=O)N[C@@H](CCC(=O)O)C(=O)N[C@@H](CC(=O)O)C(=O)N[C@@H](C)C(=O)N[C@@H](CO)C(=O)N[C@@H](CCC(=O)O)C(=O)N[C@@H](CCC(=O)O)C(=O)N[C@@H](CCC(=O)O)C(=O)N[C@@H](CC(C)C)C(=O)N[C@@H](CCC(N)=O)C(=O)N[C@@H](CCCNC(=N)N)C(=O)N[C@@H](Cc1ccc(O)cc1)C(=O)N[C@@H](Cc1ccc(O)cc1)C(=O)N[C@H](C(=O)N[C@@H](CCC(=O)O)C(=O)N[C@@H](CC(C)C)C(=O)N[C@@H](CCCNC(=N)N)C(=O)N[C@@H](Cc1c[nH]cn1)C(=O)N[C@@H](Cc1ccc(O)cc1)C(=O)N[C@@H](Cc1ccc(O)cc1)C(=O)N[C@@H](CC(N)=O)C(=O)N[C@@H](Cc1c[nH]c2ccccc12)C(=O)N[C@@H](CC(C)C)C(=O)N[C@H](C(=O)N[C@@H](CCCNC(=N)N)C(=O)N[C@@H](CCC(N)=O)C(=O)N[C@@H](CCCNC(=N)N)C(=O)N[C@@H](Cc1ccc(O)cc1)C(N)=O)[C@@H](C)O)C(C)C [Compound 77, N{alpha-4}-(3-methylbutanoyl)-N{epsilon-7}-[2-(2-{2-[2-(2-{2-[(4S)-4-carboxy-4-(17-carboxyheptadecanamido)butanamido]ethoxy}ethoxy)acetamido]ethoxy}ethoxy)acetamido]-[4A,7K,9E,14E,18Q,22V,23E,28Y,30W,31L]hPYY (4-36)]"
